# Reference: patent US5759996A, “Peptides useful for altering αv β3 -mediated binding” (priority 1995, dated 1998)
# Where a SMILES comes first, the peptide text is derived from it. Bridges are numbered along the chain shown (N, C = ends). [ ]: non-standard residue; d: D form. Tic = O=C(O)[C@@H]1Cc2ccccc2CN1; Pen = CC(C)(S)[C@H](N)C(=O)O; Mpa = O=C(O)CCS
# What was measured:
# [1] = half-life of peptide in serum; conditions: in vivo
# Description: Increased stability of a disulfide bonded peptide of the invention also can be conferred by incorporating a hydrophobic amino acid residue such as phenylalanine at position X1 or X8 or both X1 and X8 in an RGDNTic (SEQ ID NO: 31) or RGDDV (SEQ ID NO: 1) pharmacophore as disclosed herein. The presence of such a residue can stabilize the disulfide bond against enzymatic degradation (see Bauer et al., Life Sciences 31:1133-1140 (1982)). […] In addition, the half-life of a peptide in a subject can be determined, for example, by high performance liquid chromatography (HPLC) of serum samples collected from the subject at various times following administration of the peptide. One skilled in the art would know how to select appropriate elution buffers for HPLC based on the physico-chemical properties of a particular peptide.
# αv β3 integrin receptor = αv β3 integrin receptor (Homo sapiens, UniProt P05106+P06756); assay: series of in vitro assays of Example II (potency and selectivity summary)
# [2] = rabbit, in vivo; cited from earlier work
# [3] = biological target: T1, purified human α5 β1 (FnR) (Homo sapiens, UniProt P05556+P08648); assay: α5 β1 ELISA (competitive); format: binding
# T1 construct: Fibronectin receptor (FnR) was purified from 100 mM octyl-glucopyranoside-extracted human placenta; from tissue; host or cells: human placenta
# Experimental: Peptide binding to purified human α5 β1 (FnR) also was determined using a competitive ELISA. In these assays, Fn was immobilized to the wells and the binding of solubilized FnR in the presence of various concentrations of a peptide analogue was determined using a mouse monoclonal antibody to human β1 (clone P4C10; Gibco) and specific binding was visualized using a second antibody.
# Microtiter wells were coated at RT by adding 100 μl of 2 μg/ml human Fn in TBS and incubating the plates overnight at 4° C. Following incubation, the plates were washed 3× with TBS/"TWEEN 20" (polyoxyethylenesorbitan monolaurate). RGD peptides were diluted in TBS containing 20 mM OG and 2 mM MnCl2 and 50 μl was added to wells at 10-fold serial dilutions. FnR was diluted in the same buffer and 50 μl was added to each well.
# The plates were incubated for 3 hr at RT and washed with 300 μl TBS/"TWEEN 20" (polyoxyethylenesorbitan monolaurate). Bound receptor was incubated with 100 μl of the monoclonal anti-β1 antibody for 2 hr, then washed 3× with TBS/"TWEEN 20" (polyoxyethylenesorbitan monolaurate). […] The amount of bound second antibody was determined as described above.
# The IC50 values for various RGD peptides were calculated by determining the concentration of a peptide that inhibited binding of Vn to αv β5 or αv β3 or of Fn to α5 β1, by 50%. […]
# [4] = parathyroid hormone-induced hypercalcemia in mice; format: in vivo; conditions: parathyroidectomized mice, 4 hr infusion, various doses
# Description: Parathyroid hormone (PTH) activates osteoclasts, which are involved in bone resorption. Associated with the increased osteoclast activity is an increase in serum calcium. The PTH-induced hypercalcemia assay measures the level of serum calcium, which is an indication of bone resorption in a subject (Fischer et al., Endocrinology 132:1411-1413 (1993), which is incorporated herein by reference).
# Swiss-Webster mice, which had been parathyroidectomized two weeks prior to beginning the assay, were obtained from Taconic Lab Animals and Services (Germantown N.Y.). Femoral vein catheters (PE-50 fused with PE10 polyethylene tubing; Becton Dickinson; Parsippany, N.J.) were installed in the mice, flushed and locked with heparinized saline (1:10), sutured to adjacent muscle and internalized within the inguinal space of the incision before closing the incision with wound clips. […]
# The experiment was initiated by feeding the mice a calcium-deficient diet overnight, then injecting the mice the following morning with a bolus of 0.2 mg PTH/kg (hPTH 1-34; Bachem; Torrance Calif.), intravenously. […] Various doses of a peptide or vehicle were infused into an animal for 4 hr, then ionized serum calcium again was measured. […] Serum calcium measurements were expressed as the difference between the value 30 min before the PTH pulse and 4 hr after peptide infusion was started. […]
# osteoclasts = conditions: cited from earlier work
# [5] = cited from earlier work
molecule,measurement,setting,value
CC(=O)N[C@@H](Cc1ccccc1)C(=O)N[C@H]1CSSC[C@@H](C(N)=O)NC(=O)[C@H](Cc2ccccc2)NC(=O)[C@H]([C@@H](C)O)NC(=O)[C@H](CC(=O)O)NC(=O)CNC(=O)[C@H](CCCNC(=N)N)NC1=O [peptide 220] (Ac-FCRGDTFC-NH2; disulfide 2-8),half-life in serum,[1],relatively long half-life in serum
"CC(=O)N[C@H]1CSSC[C@@H](C(N)=O)NC(=O)[C@@H]2Cc3ccccc3CN2C(=O)[C@H](CO)NC(=O)[C@H](CC(=O)O)NC(=O)CNC(=O)[C@H](CCCNC(=N)N)NC1=O [compound 812, Ac-CRGDS(Tic)C-NH2] (Ac-CRGDS[Tic]C-NH2; disulfide 1-7)",activity (FIG. 2 assays),αv β3 integrin receptor; minimal-element peptides,demonstrate activity
same,potency (active at relatively low concentration),αv β3 integrin receptor; summary of assays,particularly potent
G(Pen)GRGDSPCA,neointimal hyperplasia,[2],inhibit neointimal hyperplasia
C[C@@H]1NC(=O)[C@H](CCCNC(=N)N)NC(=O)CNC(=O)CC[C@@H](C(N)=O)NC(=O)[C@@H]2CCCN2C(=O)[C@H](CC(N)=O)NC(=O)[C@H](CC(=O)O)NC(=O)CNC(=O)[C@H](CCCNC(=N)N)NC1=O [compound 390] (GRARGDNPE-NH2; lactam N-9),receptor selectivity α5 β1 versus αv β5,[3],more selective toward α5 β1 than toward αv β5
CC(=O)N[C@H]1CSSC(C)(C)[C@@H](C(N)=O)NC(=O)[C@@H]2CCCN2C(=O)[C@H](CC(N)=O)NC(=O)[C@H](CC(=O)O)NC(=O)CNC(=O)[C@H](CCCNC(=N)N)NC1=O [compound 228] (Ac-CRGDNP[Pen]-NH2; disulfide 1-7),receptor selectivity (summary),αv β3 integrin receptor; summary of assays,particularly receptor selective
CC(=O)N[C@@H]1C(=O)N[C@@H](Cc2ccccc2)C(=O)N[C@@H](C)C(=O)N[C@@H](CCCNC(=N)N)C(=O)NCC(=O)N[C@@H](CC(=O)O)C(=O)N[C@@H](CC(N)=O)C(=O)N2CCC[C@H]2C(=O)N[C@H](C(N)=O)CSSC1(C)C [peptide 214] (Ac-[Pen]FARGDNPC-NH2; disulfide 1-9),potency (active at relatively low concentration),αv β3 integrin receptor; summary of assays,particularly potent
CC(C)[C@@H]1NC(=O)[C@H](CC(=O)O)NC(=O)[C@H](CC(=O)O)NC(=O)CNC(=O)[C@H](CCCNC(=N)N)NC(=O)CCSSC[C@@H](C(N)=O)NC1=O [compound 191] ([Mpa]RGDDVC-NH2; disulfide 1-7),PTH-induced rise in serum ionized calcium,[4],decreased the PTH-induced rise in serum ionized calcium in a dose responsive manner
Echistatin,binding to osteoclasts,osteoclasts,binds to osteoclasts in a nonselective manner
same,bone resorption in vitro,osteoclasts; in vitro,inhibits bone resorption in vitro
same,bone resorption in vivo,[5],inhibits bone resorption
